Legend:
[1] = cited from earlier work
[2] = molecular target: T1, human DAT (Homo sapiens, UniProt Q01959); test: Uptake inhibition assay, DAT; type: cell-based
T1 construct: expressed in transfected cells
Experimental: (§1) Human embryonic kidney (HEK) 293 cells stably expressing human DAT, NET or SERT were maintained in humidified atmosphere (37° C., 5% CO2) in Dulbecco's Modified Eagle Medium (DMEM), supplemented with 10% heat-inactivated fetal calf serum (FCS), streptomycin (100 μg×100 mL^−1) and penicillin (100 U×100 mL^−1). Geneticin (50 μg×mL^−1) was used as selection antibiotic.
(§2) One day before the experiment, HEK293 cells expressing the respective transporters (DAT, NET or SERT) were seeded onto poly-D-lysine coated 96 well plates at a density of 30,000 cells per well in a final volume of 200 μL. For uptake experiments, the cell culture medium was replaced with […] Krebs-HEPES buffer (KHB; 25 mM HEPES, 120 mM NaCl, 5 mM KCl, 1.2 mM CaCl2, 1.2 mM MgSO4, and 5 mM D-glucose, pH 7.3). Then, the buffer was replaced with various concentrations of test compounds for 5 minutes; subsequent to that, 0.1 μM [^3H]5-HT (SERT), 0.1 μM [^3H]dopamine (DAT), or 0.05 μM [^3H]MPP^+ (NET) in KHB was added to yield a total volume of 50 μL in the well. For determination of non-specific uptake, paroxetine was used in case of SERT (3 μM), vanoxerine (also known as GBR12909) for DAT and NET (50 μM).
(§3) Uptake was terminated after 60 s (SERT) or 180 s (DAT, NET) by washing the cells with 200 μL ice-cold KHB. Subsequently, the cells were lysed with 200 μL Ultima Gold™ XR liquid scintillation cocktail, and the amount of tritium in the cells was measured with a Wallac 1450 MicroBeta® TriLux liquid scintillation counter. Monoamine uptake data were fitted by nonlinear regression, Vmax and Km values were calculated from Michaelis Menten's least-squares fit with GraphPad Prism (Prism 9.0.2, GraphPad Software, San Diego, CA, USA).
(§4) RT054 and RT056 were tested in both uptake inhibition and release assays, and the corresponding prodrug AM176 was tested in uptake inhibition assays. AM176 was tested either as the undecomposed prodrug or after treatment with 0.5% HCl at 37° C. for 24 hours in order to simulate digestion of the prodrug by gastric acid inside the body after peroral administration.

[3] = molecular target: T2, human NET (Homo sapiens, UniProt P23975); test: Uptake inhibition assay, NET; type: cell-based
T2 construct: expressed in transfected cells
T2 sequence (P23975 whole entry): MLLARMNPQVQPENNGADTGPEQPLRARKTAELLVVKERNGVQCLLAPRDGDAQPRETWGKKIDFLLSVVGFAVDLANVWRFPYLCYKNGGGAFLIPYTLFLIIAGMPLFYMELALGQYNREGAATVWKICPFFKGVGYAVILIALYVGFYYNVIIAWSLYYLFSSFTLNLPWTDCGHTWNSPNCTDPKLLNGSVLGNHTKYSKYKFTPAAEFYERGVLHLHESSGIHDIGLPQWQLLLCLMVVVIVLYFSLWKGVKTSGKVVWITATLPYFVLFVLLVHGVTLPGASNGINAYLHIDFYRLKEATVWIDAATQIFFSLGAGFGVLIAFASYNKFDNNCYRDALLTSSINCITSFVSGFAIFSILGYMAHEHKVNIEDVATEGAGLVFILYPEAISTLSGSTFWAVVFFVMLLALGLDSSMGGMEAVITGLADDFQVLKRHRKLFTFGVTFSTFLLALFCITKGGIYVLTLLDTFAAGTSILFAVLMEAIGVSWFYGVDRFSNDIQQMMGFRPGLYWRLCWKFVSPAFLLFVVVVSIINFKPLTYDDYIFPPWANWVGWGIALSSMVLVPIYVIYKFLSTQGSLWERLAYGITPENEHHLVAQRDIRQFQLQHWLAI
Experimental: as §1, §2, §3, §4

[4] = molecular target: T3, human SERT (Homo sapiens, UniProt P31645); test: Uptake inhibition assay, SERT; type: cell-based
T3 construct: expressed in transfected cells
T3 sequence (P31645 whole entry): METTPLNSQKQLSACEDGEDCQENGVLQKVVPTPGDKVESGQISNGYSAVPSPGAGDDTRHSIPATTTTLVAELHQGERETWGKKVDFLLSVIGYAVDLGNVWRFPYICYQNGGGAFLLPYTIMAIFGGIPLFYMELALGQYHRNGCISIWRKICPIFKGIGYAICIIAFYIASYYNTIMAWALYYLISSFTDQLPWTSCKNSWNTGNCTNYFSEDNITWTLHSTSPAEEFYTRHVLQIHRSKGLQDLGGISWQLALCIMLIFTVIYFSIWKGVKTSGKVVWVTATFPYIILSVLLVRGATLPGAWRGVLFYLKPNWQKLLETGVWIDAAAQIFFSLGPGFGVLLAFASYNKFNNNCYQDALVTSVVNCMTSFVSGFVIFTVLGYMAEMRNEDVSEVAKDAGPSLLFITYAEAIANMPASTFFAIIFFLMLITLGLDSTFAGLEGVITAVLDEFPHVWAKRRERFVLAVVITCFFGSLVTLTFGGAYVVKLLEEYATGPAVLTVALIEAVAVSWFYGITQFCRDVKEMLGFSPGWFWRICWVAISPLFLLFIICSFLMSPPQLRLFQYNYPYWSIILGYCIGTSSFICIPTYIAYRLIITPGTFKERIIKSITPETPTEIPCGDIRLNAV
Experimental: as §1, §2, §3, §4

[5] = Stability study in phosphate buffers pH 7.4 and pH 8.0; type: physicochemical; settings: phosphate buffer pH 7.4/pH 8.0, 37° C.
Experimental: (§5) Three novel compounds i.e., tert-butyl (2,5-dimethoxy-4-methylphenethyl)carbamate (Preparative Example 18), tert-butyl (2,5-dimethoxyphenethyl)carbamate (Preparative Example 7), and N-(3,4,5-Trimethoxyphenethyl-2-hydroxy-acetophenon imine (Preparative Example 17) were tested for their stability in 1% hydrochloric acid (HCl) as well as in phosphate buffers at pH 7.4 and pH 8.0. These conditions were selected to provide insights into the chemical stability of compounds at a pH values similar to conditions within the human body. The diluted hydrochloric acid (pH 1) represents gastric acid within the stomach whereas the potassium phosphate buffers at pH 7.4 and pH 8.0 simulate the conditions in the human blood and small intestine, respectively.
(§6) 4 mg of each test compound was diluted in either HCl solution or phosphate buffer (0.1 M) to give a solution of 1 mg/ml. Regarding the acidic testing with hydrochloric acid, 2 ml of aqueous test compound solutions were then added to 2 ml of 0.64 M HCl, yielding a final HCl concentration of 0.32 M (pH 0.5). Since all compounds tested, represent «free bases», a minimal amount of 100-200 microliters of dimethylsulfoxide (DMSO) has been added to avoid aggregation effects during testing. […] Concentrations of parent compound were analyzed at various timepoints using LC-MS. […]

[6] = Stability study in 1% HCl (representative of gastric acid); type: physicochemical; settings: 37° C., approximately 21 hours, LC-MS
Experimental: as §5, §6

[7] = patients; cited from earlier work
[8] = HEK293 cells stably expressing DAT, [3H]dopamine
[9] = HEK293 cells stably expressing NET, [3H]MPP+
[10] = HEK293 cells stably expressing SERT, [3H]5-HT

T1 sequence (Q01959 whole entry): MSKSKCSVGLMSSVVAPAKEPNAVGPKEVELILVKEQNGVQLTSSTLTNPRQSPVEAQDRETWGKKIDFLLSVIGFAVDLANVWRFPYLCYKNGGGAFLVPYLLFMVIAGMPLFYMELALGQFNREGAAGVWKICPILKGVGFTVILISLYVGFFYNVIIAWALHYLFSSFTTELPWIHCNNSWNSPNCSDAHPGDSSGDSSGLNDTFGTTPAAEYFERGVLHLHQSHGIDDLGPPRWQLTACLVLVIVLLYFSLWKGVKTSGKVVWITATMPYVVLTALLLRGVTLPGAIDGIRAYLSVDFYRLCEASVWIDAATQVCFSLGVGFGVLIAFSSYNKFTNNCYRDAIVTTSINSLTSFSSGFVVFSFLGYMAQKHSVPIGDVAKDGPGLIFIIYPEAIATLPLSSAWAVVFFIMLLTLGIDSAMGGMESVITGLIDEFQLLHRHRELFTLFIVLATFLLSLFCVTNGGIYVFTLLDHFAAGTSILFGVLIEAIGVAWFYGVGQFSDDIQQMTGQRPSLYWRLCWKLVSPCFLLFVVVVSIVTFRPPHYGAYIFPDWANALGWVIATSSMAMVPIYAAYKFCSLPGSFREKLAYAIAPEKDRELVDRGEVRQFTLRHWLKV

In the case of `NCCc1ccccc1` [phenethylamine (PEA), phenethylamine], the “half-life after oral consumption” value [1] is given as “approximately 10 minutes”.

`CC(N)Cc1ccc2c(c1)OCS2` (centres unmarked) [RT054, Benzoxathiol-6-yl-propan-2-amine, reference compound] showed an IC50 [2, 8] of 1.3 µM, an IC50 [3, 9] of 0.8 µM and an IC50 [4, 10] of 3.6 µM.

With `COc1cc(CCNC(=O)OC(C)(C)C)c(OC)cc1C` [Preparative Example 18, t-butyl-(2,5-Dimethoxy-4-methylphenethyl)carbamate] the “Degradation at neutral and basic conditions” value [5] was “complete stability”.

For `COc1cc(CC/N=C(\C)c2ccccc2O)cc(OC)c1OC`, the “Degradation in 1% HCl to the corresponding drug” value [6] was “more retarded degradation behavior”.

In the case of `COc1cc(CCN)cc(OC)c1OC` [Mescaline, mescaline], the “oral dose to cause the desired psychedelic state” value [7] is listed as “over 200 mg”.

In the case of `COc1ccc(OC)c(CCNC(=O)OC(C)(C)C)c1` [Preparative Example 7, tert.-butyl-(2,5-Dimethoxyphenethyl)carbamate], the “Degradation at neutral and basic conditions” value [5] is reported as “complete stability”.

In the case of `CNC(C)Cc1ccc2c(c1)OCS2` (centres unmarked) [RT056, Benzoxathiol-6-yl-N-methyl-propan-2-amine], the IC50 [2, 8] is reported as 0.9 µM, the IC50 [3, 9] is reported as 1.8 µM and the IC50 [4, 10] is reported as 4.5 µM.

With `CC(Cc1ccc2c(c1)OCS2)N(C)C(=O)OC(C)(C)C` (centres unmarked) [AM176, tert-butyl (1-benzo[d][1,3]oxathiole-6-yl)propan-2-yl(methyl)carbamate] the IC50 ([2]; HCl-treated (0.5% HCl at 37° C. for 24 hours), HEK293 cells expressing DAT) was 3.4 µM, the “Interaction with DAT in uptake inhibition assay (in words)” value ([2]; after pre-treatment with HCl) was “inhibits substrate-uptake via all monoamine transporters in a competitive manner” and the “Interaction with DAT in uptake inhibition assay (in words)” value ([2]; without pre-treatment with HCl) was “no interaction”. For the same compound, the IC50 ([3]; HCl-treated (0.5% HCl at 37° C. for 24 hours), HEK293 cells expressing NET) was 9.2 µM, the “Interaction with NET in uptake inhibition assay (in words)” value ([3]; after pre-treatment with HCl) was “inhibits substrate-uptake via all monoamine transporters in a competitive manner” and the “Interaction with NET in uptake inhibition assay (in words)” value ([3]; without pre-treatment with HCl) was “no interaction”. For the same compound, the IC50 ([4]; HCl-treated (0.5% HCl at 37° C. for 24 hours), HEK293 cells expressing SERT) was 18.3 µM, the “Interaction with SERT in uptake inhibition assay (in words)” value ([4]; after pre-treatment with HCl) was “inhibits substrate-uptake via all monoamine transporters in a competitive manner” and the “Interaction with SERT in uptake inhibition assay (in words)” value ([4]; without pre-treatment with HCl) was “no interaction”.

— patent US20260085036A1 (MiHKAL GmbH, priority 2022, published 2026)
